Reference: patent US7488743B2, “Indolin-2-one pyridine derivatives, preparation and therapeutic use thereof” (Sanofi-Aventis, priority 2004, dated 2009)
Counter-ions that a name gives are not always drawn. Values belong to the molecule of their own block, whether it stands above or below them.

How the values were obtained:
[1] = biological target: T1, human uterine oxytocin receptors (Homo sapiens, UniProt P30559); test: in vitro binding test: displacement of a radioiodinated oxytocin analog in a membrane preparation; conditions: read-out: IC50 (concentration which inhibits 50% of the binding of the radioiodinated oxytocin analog to its receptors)
T1 construct: host or cells: membrane preparation
T1 sequence (P30559 1-389): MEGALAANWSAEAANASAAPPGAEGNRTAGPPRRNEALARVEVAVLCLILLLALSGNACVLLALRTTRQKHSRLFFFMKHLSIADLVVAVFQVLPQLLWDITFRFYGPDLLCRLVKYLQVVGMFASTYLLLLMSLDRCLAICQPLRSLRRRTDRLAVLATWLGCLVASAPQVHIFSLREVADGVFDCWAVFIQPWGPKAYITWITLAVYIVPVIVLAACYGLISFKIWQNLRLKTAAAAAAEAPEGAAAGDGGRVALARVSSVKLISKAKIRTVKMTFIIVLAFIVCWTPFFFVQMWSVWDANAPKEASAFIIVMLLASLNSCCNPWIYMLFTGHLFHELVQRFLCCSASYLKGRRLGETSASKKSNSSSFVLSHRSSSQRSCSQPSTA
Method: The compounds according to the invention have formed the subject of biochemical and pharmacological studies. The affinity of the compounds according to the invention for oxytocin receptors was determined in an in vitro binding test using the method described by J. Elands et al., Eur. J. Pharmacol. (1987), 147, pp. 197-207. This method consists in studying in vitro the displacement of a radioiodinated oxytocin analog at the oxytocin receptors in a membrane preparation of human uterine oxytocin receptors. The IC50 values (concentration which inhibits 50% of the binding of the radioiodinated oxytocin analog to its receptors) are low and vary from 10^−10 to 10^−6 M in the latter test.

[2] = biological target: T2, cells expressing human oxytocin receptors (Homo sapiens, UniProt P30559); test: measurement of intracellular calcium (agonist or antagonist nature); format: cell-based
T2 sequence (P30559 1-389): T1 sequence (P30559 1-389)
Method: The agonist or antagonist nature of the compounds is determined in vitro in a test for the measurement of intracellular calcium with respect to cells expressing human oxytocin receptors according to the general technique described in Am. J. Physiol., 268, and Heart Circ. Physiol. (1995), 37, H404-H410.

[3] = biological target: human vasopressin V1a receptors (Homo sapiens, UniProt P37288); test: affinity for vasopressin V1a receptors (method of Thibonnier et al.); format: binding; conditions: tested at a concentration of 1 μM; read-out: percentage of inhibition on V1a receptors
human vasopressin V1a receptors, sequence (P37288 whole entry): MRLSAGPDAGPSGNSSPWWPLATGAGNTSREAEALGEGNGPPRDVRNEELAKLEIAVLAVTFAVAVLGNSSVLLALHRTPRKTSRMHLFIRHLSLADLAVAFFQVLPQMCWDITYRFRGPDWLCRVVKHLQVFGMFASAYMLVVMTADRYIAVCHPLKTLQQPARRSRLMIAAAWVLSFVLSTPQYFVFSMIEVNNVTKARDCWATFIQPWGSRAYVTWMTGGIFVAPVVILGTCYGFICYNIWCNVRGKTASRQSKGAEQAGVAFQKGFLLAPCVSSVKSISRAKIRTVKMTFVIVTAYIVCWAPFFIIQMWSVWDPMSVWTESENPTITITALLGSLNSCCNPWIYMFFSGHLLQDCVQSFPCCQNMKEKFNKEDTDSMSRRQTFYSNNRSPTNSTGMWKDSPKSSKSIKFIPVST
Source text: (§1) The affinity of these compounds for human vasopressin V1a receptors (method described by M. Thibonnier et al. in J. Biol. Chem. (1994), 269, pp. 3304-3310), V1b receptors (method described by T. Sugimoto et al. in J. Biol. Chem. (1994), 269, pp. 27088-27092) and V2 receptors (method described by T. Birnbaumer et al. in Nature (Lond.) (1992), 357, pp. 333-335) has also been studied. The compounds studied have little or no affinity for the V1a, V1b and V2 receptors.

[4] = biological target: T3, human vasopressin V1b receptors (Homo sapiens, UniProt P47901); test: affinity for vasopressin V1b receptors (method of Sugimoto et al.); format: binding; conditions: tested at a concentration of 1 μM; read-out: percentage of inhibition on V1b receptors
T3 sequence (P47901 1-424): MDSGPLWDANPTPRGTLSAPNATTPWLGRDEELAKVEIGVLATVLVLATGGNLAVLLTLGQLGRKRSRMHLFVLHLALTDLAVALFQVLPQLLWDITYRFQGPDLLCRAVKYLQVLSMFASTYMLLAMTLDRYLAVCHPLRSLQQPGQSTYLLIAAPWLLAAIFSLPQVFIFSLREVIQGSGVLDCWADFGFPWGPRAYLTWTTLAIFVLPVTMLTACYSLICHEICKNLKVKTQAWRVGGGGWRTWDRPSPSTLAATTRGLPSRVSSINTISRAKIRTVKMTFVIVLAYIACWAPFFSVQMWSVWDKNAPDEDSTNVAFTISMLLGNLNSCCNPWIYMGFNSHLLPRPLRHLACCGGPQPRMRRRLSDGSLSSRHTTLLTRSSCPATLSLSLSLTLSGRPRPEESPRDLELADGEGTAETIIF
Source text: as §1

[5] = biological target: human vasopressin V2 receptors (Homo sapiens, UniProt P30518); test: affinity for vasopressin V2 receptors (method of Birnbaumer et al.); format: binding; conditions: tested at a concentration of 1 μM; read-out: percentage of inhibition on V2 receptors
human vasopressin V2 receptors, sequence (P30518 whole entry): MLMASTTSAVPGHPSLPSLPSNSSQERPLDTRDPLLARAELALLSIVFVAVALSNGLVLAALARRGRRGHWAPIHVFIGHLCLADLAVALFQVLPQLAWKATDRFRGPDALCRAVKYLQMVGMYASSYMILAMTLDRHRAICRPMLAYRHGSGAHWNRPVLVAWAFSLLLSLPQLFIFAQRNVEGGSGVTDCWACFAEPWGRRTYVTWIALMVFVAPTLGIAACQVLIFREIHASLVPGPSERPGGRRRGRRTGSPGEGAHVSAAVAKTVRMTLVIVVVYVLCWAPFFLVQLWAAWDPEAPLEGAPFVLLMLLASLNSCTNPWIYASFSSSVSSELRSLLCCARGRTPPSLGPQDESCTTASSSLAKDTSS
Source text: as §1

SMILES: CCN(Cc1ccc[n+]([O-])c1)C(=O)c1ccc(Cl)c(C2(C)C(=O)N(Cc3ccc(OC)cc3OC)c3ccc(Cl)cc32)c1 (centres unmarked) (as salt: hydrochloride) [example 7, 4-chloro-3-[5-chloro-1-(2,4-dimethoxybenzyl)-3-methyl-2-oxo-2,3-dihydro-1H-indol-3-yl]-N-ethyl-N-(1-oxypyrid-3-ylmethyl)benzamide hydrochloride]
melting point: 176 °C

IC50 [1]: 6.9 nM
SMILES: CCN(Cc1ccc[n+](CC(=O)O)c1)C(=O)c1ccc(Cl)c(C2(C)C(=O)N(Cc3ccc(OC)cc3OC)c3ccc(Cl)cc32)c1 (centres unmarked) [example 2, 1-Carboxymethyl-3-[({4-chloro-3-[5-chloro-1-(2,4-dimethoxybenzyl)-3-methyl-2-oxo-2,3-dihydro-1H-indol-3-yl]benzoyl}(ethyl)amino)methyl]pyridinium chloride]

IC50 [2]: 3 nM
agonist or antagonist nature [2]: antagonist
SMILES: CCN(Cc1ccc[n+]([C@@H]2O[C@H](C(=O)O)[C@@H](O)[C@H](O)[C@H]2O)c1)C(=O)c1ccc(Cl)c(C2(C)C(=O)N(Cc3ccc(OC)cc3OC)c3ccc(Cl)cc32)c1 (stereo partly drawn) [example 3, 1-(β-D-Glucopyranuronosyl)-3-[({4-chloro-3-[5-chloro-1-(2,4-dimethoxybenzyl)-3-methyl-2-oxo-2,3-dihydro-1H-indol-3-yl]benzoyl}(ethyl)amino)methyl]pyridinium chloride]

SMILES: CCN(Cc1ccc[n+]([O-])c1)C(=O)c1ccc(Cl)c(C2(C)C(=O)N(Cc3ccc(OC)cc3OC)c3ccc(Cl)cc32)c1 (centres unmarked) [example 7, 4-chloro-3-[5-chloro-1-(2,4-dimethoxybenzyl)-3-methyl-2-oxo-2,3-dihydro-1H-indol-3-yl]-N-ethyl-N-(1-oxypyrid-3-ylmethyl)benzamide hydrochloride]
IC50 [1]: < 50 nM
inhibition at 1 µM [3]: < 50%
inhibition at 1 µM [4]: < 50%
inhibition at 1 µM [5]: < 50%
